Reference: patent US10875876B2, “Cyclized sulfamoylarylamide derivatives and the use thereof as medicaments for the treatment of hepatitis B” (priority 2015, dated 2020)
Where two headings read alike, the source gives them in different places.

Key:
[1] = tested on: HepG2 cells; assay: Cytotoxicity in HepG2 cells, Resazurin assay; settings: read-out: TOX-HepG2-4 d CC50; HepG2 cells incubated for 4 days, viability by Resazurin assay
[2] = tested on: HBV; assay: anti HBV activity, HepG2.117 cell line, intracellular HBV DNA by realtime PCR; format: cell-based; settings: HepG2.117 cell line (Tet-off), 3 days of treatment, intracellular HBV DNA quantified by realtime PCR; read-out: HBV-AVE-HepG2.117 EC50
Summary of the method: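 Readout was intracellular HBV DNA by real-time PCR (HBV-specific primers and probe) after 3 days of compound exposure. Serial dilutions were tested in duplicate on HepG2.117 cells, a stable inducible HBV producer in which replication is switched on when doxycycline is absent.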

[3] = from C=CCCCCC(C)NS(=O)(=O)c1cn(C)c(C(=O)OC)c1CC=C; rcm bond; Grubbs catalyst 2nd generation; DCE; 3.4 mM; 80.0 °C; 2.0 h
[4] = tested on: HepG2 cells

Structure (SMILES) | CC50 [1] [nM] | EC50 [2] [nM] | ring closure, yield of all isomers [3] [%] | CC50 [4] [nM]
CC1C=Cc2c(cn(C)c2C(=O)Nc2ccc(F)c(F)c2)S(=O)(=O)N1 (single isomer, unassigned) [Compound 7b, N-(3,4-difluorophenyl)-3,7-dimethyl-1,1-dioxo-2,3-dihydropyrrolo-[3,4-f]thiazepine-6-carboxamide] | > 25000 | 7 |  | 
Cn1cc2c(c1C(=O)Nc1ccc(F)c(F)c1)OCC(C)(Cc1cccnc1)NS2(=O)=O (single isomer, unassigned) [Compound 199b, N-(3,4-difluorophenyl)-3,7-dimethyl-1,1-dioxo-3-(3-pyridylmethyl)-2,4-dihydropyrrolo[3,4-b][1,4,5]oxathiazepine-6-carboxamide] | > 25000 | 8 |  | 
Cc1cc(CC2(C)COc3c(cn(C)c3C(=O)Nc3ccc(F)c(F)c3)S(=O)(=O)N2)no1 (single isomer, unassigned) [Compound 162b, N-(3,4-difluorophenyl)-3,7-dimethyl-3-[(5-methylisoxazol-3-yl)methyl]-1,1-dioxo-2,4-dihydropyrrolo[3,4-b][1,4,5]oxathiazepine-6-carboxamide] | > 25000 | 11 |  | 
Cn1cc2c(c1C(=O)Nc1ccnc(C(F)(F)F)c1)CCC(C(F)(F)F)NS2(=O)=O (single isomer, unassigned) [Compound 59b, 7-methyl-1,1-dioxo-3-(trifluoromethyl)-N-[2-(trifluoromethyl)-4-pyridyl]-2,3,4,5-tetrahydropyrrolo[3,4-f]thiazepine-6-carboxamide] | > 25000 | 140 |  | 
Cn1cc2c(c1C(=O)Nc1ccc(F)c(C#N)c1)CCC(C(C)(C)O)NS2(=O)=O (single isomer, unassigned) [Compound 116b, N-(3-cyano-4-fluoro-phenyl)-3-(1-hydroxy-1-methyl-ethyl)-7-methyl-1,1-dioxo-2,3,4,5-tetrahydropyrrolo[3,4-f]thiazepine-6-carboxamide] | > 25000 | > 350 |  | 
Cn1ccc(CC2(C)COc3c(cn(C)c3C(=O)Nc3ccnc(C(F)F)c3)S(=O)(=O)N2)n1 (single isomer, unassigned) [Compound 217b, N-[2-(difluoromethyl)-4-pyridyl]-3,7-dimethyl-3-[(1-methylpyrazol-3-yl)methyl]-1,1-dioxo-2,4-dihydropyrrolo[3,4-b][1,4,5]oxathiazepine-6-carboxamide] | > 25000 | 100 |  | 
COC(=O)c1c2c(cn1C)S(=O)(=O)NC(C)CCCC/C=C\C2 (stereo not shown) |  |  | 61.1 | 
C[C@@H](N1CCCCc2c(cn(C)c2C(=O)Nc2ccc(F)c(F)c2)S1(=O)=O)C(F)(F)F [Compound 4, N-(3,4-difluorophenyl)-8-methyl-1,1-dioxo-2-[(1R)-2,2,2-trifluoro-1-methyl-ethyl]-3,4,5,6-tetrahydropyrrolo[3,4-g]thiazocine-7-carboxamide] |  | 1090 |  | > 25000
CCC1(C)COc2c(cn(C)c2C(=O)Nc2ccc(F)c(F)c2)S(=O)(=O)N1 (single isomer, unassigned) [Compound 134b, N-(3,4-difluorophenyl)-3-ethyl-3,7-dimethyl-1,1-dioxo-2,4-dihydropyrrolo[3,4-b][1,4,5]oxathiazepine-6-carboxamide] | > 25000 | 7 |  | 
Cc1cc(CC2(C)COc3c(cn(C)c3C(=O)Nc3ccnc(Cl)c3)S(=O)(=O)N2)no1 (single isomer, unassigned) [Compound 213b, N-(2-chloro-4-pyridyl)-3,7-dimethyl-3-[(5-methylisoxazol-3-yl)methyl]-1,1-dioxo-2,4-dihydropyrrolo[3,4-b][1,4,5]oxathiazepine-6-carboxamide] | > 25000 | 16 |  | 
C[C@@H]1Oc2c(cn(C)c2C(=O)Nc2ccnc(Br)c2)S(=O)(=O)N[C@@H]1CO [compound 236] | > 25000 | 340 |  | 
Cn1cc2c(c1C(=O)Nc1ccc(F)c(C#N)c1)CCC(C(F)(F)F)NS2(=O)=O (single isomer, unassigned) [Compound 60b, N-(3-cyano-4-fluoro-phenyl)-7-methyl-1,1-dioxo-3-(trifluoromethyl)-2,3,4,5-tetrahydropyrrolo[3,4-f]thiazepine-6-carboxamide] | > 25000 | 5 |  | 
Cc1cc(NC(=O)c2c3c(cn2C)S(=O)(=O)N[C@@H](C(O)C2CC2)CO3)ccc1F (single isomer, unassigned) [Compound 206b, 3-[cyclopropyl(hydroxy)methyl]-N-(4-fluoro-3-methyl-phenyl)-7-methyl-1,1-dioxo-3,4-dihydro-2H-pyrrolo[3,4-b][1,4,5]oxathiazepine-6-carboxamide] | > 25000 | 12 |  | 
